Measurements reported in ChEMBL document CHEMBL1155795, “Revisiting the sponge sources, stereostructure, and biological activity of cyclocinamide a” (J Nat Prod, 2008).
Starred links: 1 amine or outer side, 2 acyl side, 3 side chain; linkers in the order of their positions; H or OH if unused. Positions of bridges follow the written chain, without caps; N, C: chain ends. Non-standard residues stand in square brackets, D forms with d. Residues, ends and D or L forms follow the SMILES beside them. *: point of attachment. Trp(5-Br) = N[C@@H](Cc1c[nH]c2ccc(Br)cc12)C(=O)O; isoSer(2S) = O=C([C@@H](O)CN[*:1])[*:2]; X1 = Cn1cc(Cl)cc1C(=O)*; Dap = NC[C@H](N)C(=O)O

Columns and labels:
[1] = Cytotoxicity against human […] cells assessed as zone of inhibition at 90 ug/disk by disk diffusion soft agar colony forming assay; type: functional; details: read-out: IZ
[2] = Cytotoxicity against mouse CFU-GM cells assessed as zone of inhibition at 90 ug/disk by disk diffusion soft agar colony forming assay; type: functional; details: read-out: IZ
[3] = system: HCT-116; experiment: Cytotoxicity against human HCT116 cells; type: functional, cell-based

Cn1cc(Cl)cc1C(=O)NCC(=O)N[C@H]1CNC(=O)[C@H](Cc2c[nH]c3ccc(Br)cc23)NC(=O)[C@@H](O)CNC(=O)[C@H](CC(N)=O)NC1=O (X1-G[Dap]N[isoSer(2S)][Trp(5-Br)]; lactam 2-C)
zone of inhibition at 90 µg/disc [1]: 26 mm | zone of inhibition at 90 µg/disc [2]: 16 mm | IC50 [3]: > 10 µg/mL
